Experimental findings from USRE37781E1, “Substituted cyclic carbonyls and derivatives thereof useful as retroviral protease inhibitors” (DuPont Pharmaceuticals Company, priority 1991, dated 2002) are described below.

In brackets after ≈: the same amount, converted by molar mass. Read-outs that look alike come from different tables or passages of the source. Some results are limits rather than exact numbers.

Experiment [1] deals with single-chain tethered dimer of HIV protease (Human immunodeficiency virus 1, UniProt P04585). The experiment can be described thus: biochemical. It counts as biochemical. Further details: fused on or other part: A second copy of the same protease unit is joined to the first by a short peptide tether, giving one polypeptide.
The next experiment concerns HIV-1 (RF) in MT-2 cells. Put plainly: microbe, parasite or virus in culture. The format is cell-based. The gist of the method: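 HIV-1 laboratory strains (RF, MN, IIIB) grown in H9 cells in RPMI 1640 with 5% FCS; infections in MT-2 cells. Viral RNA quantified by hybridization with biotinylated gag/pol capture probes on streptavidin plates and alkaline phosphatase-conjugated reporter probes; BH10 gag-pol in vitro transcripts serve as RNA standards.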

Where [2] appears, read: read-out: HPLC K1, Table 2d, HIV protease inhibition, HPLC method.
[3] abbreviates: Human immunodeficiency virus 1, MT2, 48 h, Table 2d, HIV RNA assay, read-out: IC90.
Setting [4] is: read-out: HPLC K1, HIV protease inhibition, HPLC method, Table 2d.
Setting [5] is: Human immunodeficiency virus 1, MT2, 48 h, HIV RNA assay, HIV-1 infected MT-2 cells, Table 2d, read-out: IC90.
Setting [6] is: read-out: HPLC K1, Table 2d, class symbols.
Where [7] appears, read: Human immunodeficiency virus 1, MT2, 48 h, Table 2d, class symbols, read-out: IC90.
Where [8] appears, read: Table 2d, class symbols, read-out: HPLC K1.

What is called IC90 is the point of the concentration-response curve where the effect stands at 90%. With `O=S1(=O)N(Cc2ccc(O)cc2)C(Cc2ccccc2)C(O)C(O)C(Cc2ccccc2)N1Cc1ccc(O)cc1` (stereo not drawn) [23K], the Ki in experiment [1] (Table 2m, read-out: HPLC Ki) was below 10 nM. For the same molecule, the 90% effect concentration (IC90) result in the experiment on HIV-1 (RF) in MT-2 cells (Table 2m) is recorded as “+++ (+++=<10 μg/mL)”.
As to `NS(=O)(=O)c1cccc(CN2C(=O)N(Cc3cccc(S(N)(=O)=O)c3)C(Cc3ccccc3)C(O)C(O)C2Cc2ccccc2)c1` (stereo not drawn) [15XQ], the Ki in experiment [1] (setting [2]) is below 10 nM. In the experiment on HIV-1 (RF) in MT-2 cells (setting [3]), the 90% effect concentration (IC90) was below 10 µg/mL.
For `N#CCCCCN1C(=O)N(CCCCC#N)C(Cc2ccccc2)C(O)C(O)C1Cc1ccccc1` (stereo not drawn) [15FD], the Ki in experiment [1] (setting [4]) fell in the range of 10 to 1000 nM. Besides, the IC90 with HIV-1 (RF) in MT-2 cells (setting [5]) fell in the range of 10 to 100 µg/mL (≈ 20.5 to 205 µM).
For the molecule `NC(=O)c1cccc(CN2C(=O)N(Cc3cccc(C(N)=O)c3)C(Cc3ccccc3)C(O)C(O)C2Cc2ccccc2)c1` (stereo not drawn) [10G], the Ki in experiment [1] (setting [6]) was below 10 nM. For the same molecule, the IC90 with HIV-1 (RF) in MT-2 cells (setting [7]) was below 10 µg/mL.
`CCNCc1cccc(C(=O)OCc2ccc(CN3C(=O)N(Cc4ccc(COC(=O)c5cccc(CNCC)c5)cc4)[C@H](Cc4ccccc4)[C@H](O)[C@@H](O)[C@H]3Cc3ccccc3)cc2)c1.Cl` [29U]: the Ki in experiment [1] (Table 2s, read-out: Ki (HPLC)) is above 1000 nM. Moreover, the IC90 entry with HIV-1 (RF) in MT-2 cells (Table 2s) is recorded as “+++ (+++=<10 μg/mL)”.
For the molecule `O=C1N(Cc2cccnc2)C(Cc2ccccc2)C(O)C(O)C(Cc2ccccc2)N1Cc1cccc(CO)c1` (stereo not drawn) [15WS], the Ki in experiment [1] (setting [6]) is below 10 nM. Further, the IC90 with HIV-1 (RF) in MT-2 cells (setting [7]) was below 10 µg/mL.
On to `CCCN1C(Cc2ccccc2)C(O)C(O)C(Cc2ccccc2)N(CCC)S1(=O)=O` (stereo not drawn) [23X], for which the Ki in experiment [1] (Table 2m, read-out: HPLC Ki) was below 10 nM. For the same molecule, the IC90 result with HIV-1 (RF) in MT-2 cells (Table 2m) is reported as “+++ (+++=<10 μg/mL)”.
The matching figures for `CCN1C(Cc2ccccc2)C(O)C(O)C(Cc2ccccc2)N(CC)S1(=O)=O` (stereo not drawn) [23W]: 10 to 1000 nM and “++ (++=10 to 100 μg/mL)”.
For the molecule `O=C(c1cccc(CN2C(=O)N(Cc3cccc(C(=O)c4cc[nH]n4)c3)C(Cc3ccccc3)C(O)C(O)C2Cc2ccccc2)c1)c1cc[nH]n1` (stereo not drawn) [Example 15YN], in experiment [1] (setting [2]), the Ki was below 10 nM. In the experiment on HIV-1 (RF) in MT-2 cells (setting [3]), the concentration for an effect of 90% (IC90) was below 10 µg/mL.
Turning to `Cl.Cl.O=C(NCCCCCN1C(=O)N(CCCCCNC(=O)c2ccncc2)C(Cc2ccccc2)C(O)C(O)C1Cc1ccccc1)c1ccncc1` (stereo not drawn) [15FA], the Ki in experiment [1] (HIV protease inhibition, HPLC method, Table 2d, read-out: HPLC K1) is 10 to 1000 nM. Also, the IC90 entry in the experiment on HIV-1 (RF) in MT-2 cells (HIV RNA assay, HIV-1 infected MT-2 cells, Table 2d) was “+++ (+++=<10 μg/mL)”.
In the case of `COCc1cccc(CN2C(Cc3ccccc3)C(O)C(O)C(Cc3ccccc3)N(Cc3cccc(COC)c3)S2(=O)=O)c1` (stereo not drawn) [23P], in experiment [1] (Table 2m, read-out: HPLC Ki), the Ki fell in the range of 10 to 1000 nM. The concentration for an effect of 90% (IC90) entry with HIV-1 (RF) in MT-2 cells (Table 2m) is recorded as “++ (++=10 to 100 μg/mL)”.
As for `NNC(=O)c1ccc(CN2C(=O)N(Cc3cccc(C(=O)NN)c3)C(Cc3ccccc3)C(O)C(O)C2Cc2ccccc2)cc1` (stereo not drawn) [10N], the Ki in experiment [1] (setting [8]) is below 10 nM. In the experiment with HIV-1 (RF) in MT-2 cells (Table 2d, class symbols), the IC90 result is recorded as “+++ (+++=<10 μg/mL)”.
Regarding `NCCCCN1C(=O)N(CCCCN)C(Cc2ccccc2)C(O)C(O)C1Cc1ccccc1` (stereo not drawn) [15FI], in experiment [1] (setting [4]), the Ki was above 1000 nM. Further, the IC90 in the experiment on HIV-1 (RF) in MT-2 cells (setting [5]) was above 50 µg/mL.
As to `O=C(CCl)Nc1cccc(CN2C(=O)N(Cc3cccc(NC(=O)CCl)c3)C(Cc3ccccc3)C(O)C(O)C2Cc2ccccc2)c1` (stereo not drawn) [Example 15AA], the Ki in experiment [1] (setting [2]) was below 10 nM. For the same molecule, the IC90 in the experiment on HIV-1 (RF) in MT-2 cells (setting [3]) was below 10 µg/mL.
Turning to `CN1C(Cc2ccccc2)C(O)C(O)C(Cc2ccccc2)N(C)S1(=O)=O` (stereo not drawn) [23V], the Ki in experiment [1] (Table 2m, read-out: HPLC Ki) was above 1000 nM. Moreover, the IC90 result with HIV-1 (RF) in MT-2 cells (Table 2m) was “++/+ (The ++/+ is used in the cases where an IC90 was determined to be >50 μg/mL)”.
Turning to `O=P1(Oc2ccccc2)N(Cc2cccc(CO)c2)[C@H](Cc2ccccc2)[C@H](O)[C@@H](O)[C@@H](Cc2ccccc2)N1Cc1cccc(CO)c1` (stereo partly drawn) [28J], the Ki in experiment [1] (Table 2r, read-out: Ki HPLC) was 10 to 1000 nM. Moreover, the IC90 result in the experiment on HIV-1 (RF) in MT-2 cells (Table 2r) is recorded as “++ (++=10 to 100 μg/mL)”.
As for `O=Cc1cccc(CN2C(Cc3ccccc3)C(O)C(O)C(Cc3ccccc3)N(Cc3cccc(C=O)c3)S2(=O)=O)c1` (stereo not drawn) [23Q], in experiment [1] (Table 2m, read-out: HPLC Ki), the Ki is below 10 nM. In addition, the 90% effect concentration (IC90) entry with HIV-1 (RF) in MT-2 cells (Table 2m) is given as “+++ (+++=<10 μg/mL)”.
For `CCOC(=O)c1cccc(CN2C(=O)N(Cc3cccc(C(=O)OCC)c3)C(Cc3ccccc3)C(O)C(O)C2Cc2ccccc2)c1` (stereo not drawn) [10W], the Ki in experiment [1] (setting [8]) was below 10 nM. The IC90 result in the experiment on HIV-1 (RF) in MT-2 cells (Table 2d, class symbols) is given as “+ (+=>100 μg/mL)”.
In the case of `[N-]=[N+]=NCCCCCN1C(=O)N(CCCCCN=[N+]=[N-])C(Cc2ccccc2)C(O)C(O)C1Cc1ccccc1` (stereo not drawn) [15EM], the Ki in experiment [1] (setting [2]) was in the range of 10 to 1000 nM. The concentration for an effect of 90% (IC90) with HIV-1 (RF) in MT-2 cells (setting [3]) was below 10 µg/mL.
On to `O=S1(=O)NC(Cc2ccccc2)C(O)C(O)C(Cc2ccccc2)N1CCCCCO` (stereo not drawn) [23AE], for which the Ki in experiment [1] (Table 2m, read-out: HPLC Ki) lay within 10 to 1000 nM. Besides, the IC90 entry with HIV-1 (RF) in MT-2 cells (Table 2m) is given as “++/+ (The ++/+ is used in the cases where an IC90 was determined to be >50 μg/mL)”.
For `O=C1N(Cc2cccc(CO)c2)C(Cc2ccc(F)cc2)C(O)C(O)C(Cc2ccc(F)cc2)N1Cc1cccc(CO)c1` (stereo not drawn) [20T], the Ki in experiment [1] (Table 2i, read-out: HPLC Ki) was below 10 nM. Further, in the experiment with HIV-1 (RF) in MT-2 cells (Table 2i), the IC90 result is listed as “+++ (+++=<10 μg/mL)”.
